In test [1] the test system is human pulmonary artery endothelial cells (PAECs). Put plainly: Caspase-Glo 3/7 apoptosis assay in human pulmonary artery endothelial cells. The settings on record: compound 173 treatment, 5 mM (so in the source), FIG. 5 panels A & D. It is filed as cell-based. The procedure:
(§1) Cell Culture. Primary human pulmonary artery endothelial cells (HPAECs) or mouse fibroblasts harboring a luciferase reporter under the control of a Period 2 (PER2) promoter (MF-Luc) were seeded into tissue culture dishes (Perkin Elmer) in a humidified incubator at 37 °C and 5% CO2. For knockdown experiments, cells were pre-treated with 20 nM “Silencer Select” scrambled silencing RNA (siNC) or with antisense targeting of Np/(siNPL) for 48 hours (ThermoFisher). For chemical treatments, cells were treated with vehicle (DMSO) or 5 mM 173.
Apoptosis. Apoptosis was measured using the Caspase-Glo 3/7 Assay System (Promega) according to the manufacturer's instructions.

Test [2] has the same test system. Put plainly: BrdU cell proliferation assay in human pulmonary artery endothelial cells. Format: cell-based. The settings on record: compound 173 treatment, 5 mM (so in the source), FIG. 5 panels B & E. On the procedure: as §1
Cell Proliferation. Cell proliferation was measured using the BrdU Cell Proliferation Assay Kit (Cell Signaling Technologies) according to the manufacturer's instructions.

The next test deals with MF-Luc cells. The test is described as follows: Lumicycle recording of circadian period in MF-Luc cells (PER2 promoter luciferase reporter). It is filed as cell-based, mouse. The note with it: compound 173 treatment, 5 mM (so in the source), recorded 7 days, FIG. 4 and FIG. 5 panels C & F. On the procedure:
as §1
Lumicycle Recording. Prior to circadian measurement, cells were synchronized with […] forskolin (Sigma) in Dulbecco's Modified Eagle Medium (DMEM) supplemented with 0.1% fetal bovine serum, and 100 mM Beetle luciferin (Promega) luciferase substrate was added for bioluminescent recording. Culture dishes were then sealed with sterile vacuum grease and placed in the Lumicycle 96 (Actimetrics) in a dehumidified incubator at 37 °C. Luminescence was recorded continuously for 7 days, and the initial 12 hours of data was omitted from the analysis to allow time for cell synchronization. […] Period was calculated as 2p/w. Period was analyzed if the R^2 was greater than 0.8.
A general note: In a reporter assay the amount or activity of a reporter protein is the signal.

The structures appear in SMILES notation.

As to `Cc1ccc(-c2n[nH]c3c2C2(C(=O)N(C)c4ccccc42)N(C)C3=O)c(O)c1` (stereo not shown) [Compound 173], the Apoptosis entry in test [1] was “increased”. Besides, the Proliferation entry in test [2] is “decreased”. For the same compound, the Circadian period length result in the test on MF-Luc cells was “decreased”; in the test with MF-Luc cells (listed as compound 173) it was “significantly decreased”.

The record behind these values is patent US20260335288A1, “Pharmacologic Targeting of Genetic Factors That Control Jet Lag” (University of Pittsburgh-Of the Commonwealth System of …, priority 2022, published 2026).
